Key:
[1] = test system: cellular pERK in NCI-H1975 cells (EGFR/L858R-T790M); experiment: pERK Potency Assay; assay type: cell-based; details: Homo sapiens, 1 hour incubation, Western blot, read-out: IC50 value, cellular pERK level
Excerpt: The purpose of this assay is to measure the ability of test compounds to inhibit SOS1 function in cells. SOS1 activates RAS proteins by catalyzing the conversion of RAS-GDP to RAS-GTP in response to receptor tyrosine kinase activation. Activation of RAS induces a sequence of cellular signaling events that results in increased phosphorylation of ERK at Threonine 202 and Tyrosine 204 (pERK). The procedure described below measured the level of cellular pERK in response to test compounds in NCI-H1975 cells (EGFR/L858R-T790M).
NCI-H1975 cells were grown and maintained using media and procedures recommended by the ATCC. On the day prior to compound addition, cells were plated in 24-well cell culture plates (0.9 ml/well) and grown overnight in a 37° C., 5% CO2 incubator. Test compounds were prepared with 3-fold serial dilutions in DMSO, with a top concentration of 10 mM. On the day of the assay, 100 uL of each test compound diluted at 1:100 in media was added to each well of cell culture plate with final concentrations of the compound spanning 0.5 nM to 10 uM. After the compound was added, the cells were incubated for 1 hour at 37° C., 5% CO2. Following incubation, culture medium was removed, and the cells were washed once with phosphate buffered saline and lysed with lysis buffer (20 mM Tris-HCl, pH 7.5, 150 mM NaCl, 1 mM EDTA, 1 mM EGTA, 0.8% NP-40 plus 2× protease and phosphatase inhibitors). Cellular pERK level was determined using the Western blot analysis and quantified with Liqor software. Signal from Western blot was plotted and IC50 values were determined by fitting a 4-parameter sigmoidal concentration response model.

[2] = test system: NCI-H1975 cells; experiment: 3D cell proliferation assay; assay type: cell-based; details: Homo sapiens, ultra low attachment plate, 96 hours, 3D CTG
Description: This assay supports the molecular mode of action of compounds. Low IC50 values are indicative of high potency of the SOS1 inhibition. […] This supports the molecular mode of action of the SOS1 inhibitors as selectively targeting cancer cells dependent on receptor tyrosine kinase-RAS/SOS1-family protein function. Cell proliferation assays were performed in three-dimensional (3D) anchorage-independent conditions in 96 well ultra-low attachment plate with the following human cell lines:
NCI-H1975: human non-small cell lung cancer (NSCLC) with wild type KRAS and EGFR L858R/T790M mutation;
Cell lines were purchased from the American Type Culture Collection (ATCC), NCI, or European Collection of Authenticated Cell Cultures (ECACC). All cell lines were maintained in RPMI-1640 or DMEM with 10% heat inactivated fetal bovine serum.
Cells growing in log phase were detached with Gibco™ TrypLE™ Express Enzyme and plated in 96 well ultra low attachment plate at 15000 to 20000 cells/well in 100 μl of media. After overnight incubation at 37° C. and 5% CO2, the cells were treated with compounds (50 μL/well) at the final concentrations spanning 1 nM to 20 μM. Cells were incubated at 37° C., 5% CO2 and 95% humidity incubator for 96 hours. At the end of incubation, a 3D CTG reagent from Promega was added to each well according to vendors recommendation and mixed for 10 minutes in dark. The luminescence signals were determined using Biotek plate reader. The data was fitted using a sigmoidal curve analysis program (GraphPAD Prism) with variable hill slope.

IC50 [1] [nM] | IC50 [2] [nM] | Compound
< 100 | 100 to 500 | C#C[C@@H](Nc1nc(C)nc2cc(=O)n(C3CCOCC3)cc12)c1cccc(C(F)(F)F)c1C [Compound 4, (R)-2-methyl-4-((1-(2-methyl-3-(trifluoromethyl)phenyl)prop-2-yn-1-yl)amino)-6-(tetrahydro-2H-pyran-4-yl)pyrido[4,3-d]pyrimidin-7(6H)-one]
< 100 | < 100 | C#C[C@@H](Nc1ncnc2c1cc(C1(O)CCN(C(C)=O)CC1)c(=O)n2C)c1cccc(C(F)F)c1F [Compound 46, 6-(1-acetyl-4-hydroxypiperidin-4-yl)-4-{[(1R)-1-[3-(difluoromethyl)-2-fluorophenyl]prop-2-yn-1-yl]amino}-8-methyl-7H,8H-pyrido[2,3-d]pyrimidin-7-one]
< 100 | < 100 | C#C[C@@H](Nc1nc(C)nc2c1cc(C1(F)CCN(C(C)=O)CC1)c(=O)n2C)c1cccc(C(F)(F)F)c1C [Compound 56, 6-(1-acetyl-4-fluoropiperidin-4-yl)-2,8-dimethyl-4-{[(1R)-1-[2-methyl-3-(trifluoromethyl)phenyl]prop-2-yn-1-yl]amino}-7H,8H-pyrido[2,3-d]pyrimidin-7-one]
< 100 | < 100 | C#C[C@@H](Nc1ncnc2c1cc(C1(NC(C)=O)CCOCC1)c(=O)n2C)c1cccc(C(F)(F)F)c1C [Compound 58, (R)-N-(4-(8-methy-4-((1-(2-methyl-3-(trifluoromethyl)phenyl)prop-2-yn-1-yl}amino)-7-oxo-7,8-dihydropyrido[2,3-d]pyrimidin-6-yl)tetrahydro-2H-pyran-4-yl)acetamide]
< 100 | < 100 | C#C[C@@H](Nc1ncnc2c1cc(C1(NC(C)=O)CCN(C(C)=O)CC1)c(=O)n2C)c1cccc(C(F)(F)F)c1C [Compound 57, (R)-N-(1-acetyl-4-(8-methy-4-((1-(2-methyl-3-(trifluoromethyl)phenyl)prop-2-yn-1-yl)amino)-7-oxo-7,8-dihydropyrido[2,3-d]pyrimidin-6-yl)piperidin-4-yl)acetamide]
< 100 | 100 to 500 | C#C[C@@H](Nc1ncnc2c1cc(C1(O)CCN(C(C)=O)C1)c(=O)n2C)c1cccc(C(F)F)c1F (stereo partly drawn) [Compound 43, 6-(1-acetyl-3-hydroxypyrrolidin-3-yl)-4-{[(1R)-1-[3-(difluoromethyl)-2-fluorophenyl]prop-2-yn-1-yl]amino}-8-methyl-7H,8H-pyrido[2,3-d]pyrimidin-7-one]
< 100 | < 100 | C#C[C@@H](Nc1ncnc2c1cc(C1(OC)CCN(C(C)=O)C1)c(=O)n2C)c1cccc(C(F)F)c1F (stereo partly drawn) [Compound 49, 6-(1-acetyl-3-methoxypyrrolidin-3-yl)-4-{[(1R)-1-[3-(difluoromethyl)-2-fluorophenyl]prop-2-yn-1-yl]amino}-8-methyl-7H,8H-pyrido[2,3-d]pyrimidin-7-one]
< 100 | < 100 | C#C[C@@H](Nc1nc(C)nc2c1cc(C1(O)CCN(C(C)=O)CC1)c(=O)n2C)c1cccc(C(F)(F)F)c1C [Compound 54, 6-(1-acetyl-4-hydroxypiperidin-4-yl)-2,8-dimethyl-4-{[(1R)-1-[2-methyl-3-(trifluoromethyl)phenyl]prop-2-yn-1-yl]amino}-7H,8H-pyrido[2,3-d]pyrimidin-7-one]
< 100 | < 100 | C#C[C@@H](Nc1nc(C)nc2c1cc(C1(OC)CCN(C(C)=O)CC1)c(=O)n2C)c1cccc(C(F)(F)F)c1C [Compound 55, 6-(1-acetyl-4-methoxypiperidin-4-yl)-2,8-dimethyl-4-{[(1R)-1-[2-methyl-3-(trifluoromethyl)phenyl]prop-2-yn-1-yl]amino}-7H,8H-pyrido[2,3-d]pyrimidin-7-one]
100 to 500 | < 100 | C#C[C@@H](Nc1nc(C)nc2cc(=O)n(C3(C(F)F)CC3)cc12)c1cccc(C(F)(F)F)c1C [Compound 9, (R)-6-(1-(difluoromethyl)cyclopropyl)-2-methyl-4-((1-(2-methyl-3-(trifluoromethyl)phenyl)prop-2-yn-1-yl)amino)pyrido[4,3-d]pyrimidin-7(6H)-one]
< 100 | < 100 | C#C[C@@H](Nc1ncnc2c1cc(C1(OC)CCN(C(C)=O)CC1)c(=O)n2C)c1cccc(C(F)F)c1F [Compound 48, (R)-6-(1-acetyl-4-methoxypiperidin-4-yl)-4-((1-(3-(difluoromethyl)-2-fluorophenyl)prop-2-yn-1-yl)amino)-8-methylpyrido[2,3-d]pyrimidin-7(8H)-one]
